Measurements as given in patent publication US20080075796A1, “Compositions and Methods for Controlling Insects” (TyraTech, Inc., priority 2003, published 2008).

What was measured:
control Schneider cells = test: Intracellular Ca2+ mobilization in control Schneider cells; type: cell-based, Drosophila; conditions: FIG. 22
Method: (§1) Intracellular calcium ion concentrations ([Ca^2+]i) are measured by using the acetoxymethyl (AM) ester of the fluorescent indicator fura-2 (Enan, et al., Biochem. Pharmacol vol 51, 447-454). In this study, cells expressing tyramine receptor are grown under standard conditions. A cell suspension is prepared in assay buffer (140 mM NaCL, 10 mM HEPES, 10 mM glucose, 5 mM KCl, 1 mM CaCl2, 1 mM MgCl2) and cell number adjusted to about 2×10^6 cells per ml. Briefly, about 1.0 ml cell suspension (about 2×10^6 cells) is incubated with about 5 μM Fura 2/AM for about 30 min at about 28° C. After incubation, the cells are pelleted at about 3700 rpm for about 10 sec at room temperature and then resuspended in about 1.5 ml assay buffer. [Ca^2+]i changes are analyzed in spectrofluorometer in the presence and absence of test chemicals. Excitation wave lengths are about 340 nm (generated by Ca^2+-bound fura-2) and about 380 nm (corresponding to Ca^2+-free fura-2). The fluorescence intensity is monitored at an emission wave length of about 510 nm. No absorbance of fluorescence artifacts are observed with any of the compounds used. The ratio of about 340/380 nm is calculated and plotted as a function of time.
(§2) Changes in intracellular Ca^2+ levels are calculated based on the difference between the 340/380 fluorescence ratios before and after approximately 150 seconds of the treatment.

Or43a receptor [1] = biological target: T1, Or43a receptor (Drosophila melanogaster, UniProt P81917, L154V); test: Intracellular Ca^2+ mobilization in Schneider cells expressing Or43a receptor; type: cell-based
T1 construct: His (from vector pAc5.1/V5-His B) (C); expressed in transfected cells
Method: as §1
(§3) Intracellular Ca^2+ levels are measured using the method described above in Example 3.
as §2

Or83b receptor [2] = biological target: T2, Or83b receptor (Drosophila melanogaster, UniProt Q9VNB5); test: Intracellular Ca^2+ mobilization in Schneider cells expressing Or83b receptor; type: cell-based; conditions: ionomycin about 2 μM, tyramine about 10 μM
T2 construct: His (from vector pAc5.1/V5-His B) (C); expressed in transfected cells
T2 sequence (Q9VNB5 1-486): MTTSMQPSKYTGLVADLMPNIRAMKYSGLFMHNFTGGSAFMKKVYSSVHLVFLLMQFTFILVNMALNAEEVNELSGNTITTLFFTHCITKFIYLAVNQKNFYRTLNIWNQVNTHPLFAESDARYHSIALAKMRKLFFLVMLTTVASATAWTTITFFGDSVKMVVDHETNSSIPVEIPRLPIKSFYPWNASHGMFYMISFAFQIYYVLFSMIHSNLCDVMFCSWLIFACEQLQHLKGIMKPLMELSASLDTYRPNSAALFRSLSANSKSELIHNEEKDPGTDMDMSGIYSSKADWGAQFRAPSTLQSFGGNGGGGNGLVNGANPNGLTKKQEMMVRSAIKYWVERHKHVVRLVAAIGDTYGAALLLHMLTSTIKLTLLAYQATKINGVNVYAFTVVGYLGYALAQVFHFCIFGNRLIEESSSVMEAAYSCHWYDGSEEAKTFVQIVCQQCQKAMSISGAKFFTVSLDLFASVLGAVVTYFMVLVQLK
Method: as §1, §3

Or83b receptor [3] = biological target: T2, Or83b receptor; test: cAMP production in Schneider cells expressing Or83b receptor; type: cell-based
Method: (§4) Cells are grown on dishes and the media changed the day before the treatment. When cells are approximately 95% confluent, media is aspirated and the cells are washed one time with about 5 mL of about 27° C. insect saline (170 mM NaCl, 6.0 mM KCl, 2.0 mM NaHCO3, 17.0 mM glucose, 6.0 mM NaH2PO4, 2.0 mM CaCl2, 4.0 mM MgCl2; pH 7.0). About 20 mL of insect saline is added, and cells are harvested by gentle scraping. An aliquot of the cells is counted by hemocytometer, and the cells are then centrifuged for about 5 minutes at about 1000 RPM. Cells are resuspended to give about 3×10^6 cells per mL. IBMX is added to about 200 μM. Then about 1 mL of cell suspension is aliquoted for treatment. Forskolin (cAMP inducing agent), tyramine or different composition candidates are added, and the cells are incubated at about 27° C. for about 10 minutes.
(§5) Treated cells are centrifuged at about 13000 g for about 10 seconds. The solution is aspirated and about 1 mL of about −20° C. 70% ethanol is added. The cell pellet is disrupted by vortexing and the samples placed at about −20° C. overnight. Following the ethanol extraction, cellular debris is pelleted by centrifugation at about 13000 g for about 5 minutes. The supernatant is transferred to a tube and lyophilized to dryness in a rotary speed-vac. The resulting extract is resuspended in about 100 μL TE and used for the cAMP assay.
(§6) The cAMP assay is based on competition binding between endogenous cAMP and ^3H-cAMP to a cAMP binding protein. The ^3H-cAMP Biotrak system (Amersham Biosciences) is used for this assay as per the manufacturer's instructions. Briefly, about 50 μL of the cellular extract is incubated with about 50 μL ^3H-cAMP and about 100 μL cAMP binding protein in an ice bath for about 2-4 hours. Charcoal (about 100 μL) is then added and the solution centrifuged for about 3 minutes at about 4° C. About 200 μL of the reaction mixture is removed and levels of ^3H-cAMP are determined by scintillation counting. Levels of endogenous cAMP from the cells are calculated using a standard curve with cold cAMP ranging from about 0 to 16 pmol per reaction.
To ensure that the cAMP cascade in this cell model is functionally active, forskolin, a cAMP inducer, is used as standard agent. Cyclic-AMP levels are measured using the cAMP assay described above in Example 2. […]
To determine the effect of various plant essential oils on intracellular cAMP production and the tyramine-dependent changes of cAMP in cells expressing one of the olfactory receptors, cells from each cell model are treated with LFO (about 50 μg/ml) and BSO (about 50 μg/ml) in the presence and absence of tyramine (about 20 μM) and forskolin (about 10 μM) and intracellular cAMP is thereafter quantified using the cAMP assay described above in Example 2.

tyramine receptor (TyrR) = biological target: T3, tyramine receptor (TyrR) (Drosophila melanogaster, UniProt P22270); test: cAMP levels in Schneider cells expressing tyramine receptor; type: cell-based; parameters: oligonucleotides that are used to amplify the open reading frame of the Drosophila tyramine receptor (TyrR); expressed in transfected cells; conditions: forskolin about 10 μM, transfected cells, vs solvent (ethanol)
T3 sequence (P22270 27-601): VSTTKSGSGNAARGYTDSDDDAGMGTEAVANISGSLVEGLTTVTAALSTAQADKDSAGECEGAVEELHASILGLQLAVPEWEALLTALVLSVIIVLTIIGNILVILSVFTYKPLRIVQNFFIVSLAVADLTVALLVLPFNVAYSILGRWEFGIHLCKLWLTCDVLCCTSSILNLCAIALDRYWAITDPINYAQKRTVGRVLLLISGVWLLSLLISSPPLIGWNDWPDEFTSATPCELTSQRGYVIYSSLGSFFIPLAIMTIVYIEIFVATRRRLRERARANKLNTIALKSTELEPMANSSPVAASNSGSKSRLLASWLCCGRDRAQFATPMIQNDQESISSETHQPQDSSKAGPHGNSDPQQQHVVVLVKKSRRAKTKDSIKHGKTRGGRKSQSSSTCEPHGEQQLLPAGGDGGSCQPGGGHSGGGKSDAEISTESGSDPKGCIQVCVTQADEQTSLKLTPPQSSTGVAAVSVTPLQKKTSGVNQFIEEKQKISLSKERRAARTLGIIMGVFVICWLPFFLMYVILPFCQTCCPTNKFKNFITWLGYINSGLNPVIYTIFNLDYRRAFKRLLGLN
Method: as §4
as §5, with “The resulting extract is resuspended in about 100 μL TE and used for the cAMP assay.” left out
The cAMP assay is based on competition binding between endogenous cAMP and ^3H-cAMP to a cAMP binding protein. […] About 200 μL of the reaction mixture is removed and levels of ^3H-cAMP are determined by scintillation counting. Levels of endogenous cAMP from the cells are calculated using a standard curve with cold cAMP ranging from about 0 to 16 pmol per reaction.
To examine test chemical-dependent coupling of the tyramine receptor, pAcB-TyrR is stably expressed in Schneider cells. Transfected and untransfected cells are treated with tyramine (about 10 μM), LFO (about 25 μg/ml) and BSO (about 25 μg/ml) in the presence and absence of forskolin (FK) (about 10 μM). cAMP production is measured using the ^3H-cAMP assay kit (Amersham) as described above.

Or43a receptor [4] = biological target: T1, Or43a receptor; test: cAMP production in Schneider cells expressing Or43a receptor; type: cell-based; conditions: agent alone; tyramine about 20 μM, LFO, BSO about 50 μg/ml, forskolin about 10 μM
Method: as §4, with “When cells are approximately 95% confluent, media is aspirated and the cells are washed one time with about 5 mL of about 27° C. insect saline (170 mM NaCl, 6.0 mM KCl, 2.0 mM NaHCO3, 17.0 mM glucose, 6.0 mM NaH2PO4, 2.0 mM CaCl2, 4.0 mM MgCl2; pH 7.0).” left out
as §5
as §6, with “counting.” for “counting. Levels of endogenous cAMP from the cells are calculated using a standard curve with cold cAMP ranging from about 0 to 16 pmol per reaction.”
As such, the cells expressing olfactory receptors have a functionally active cAMP cascade.

[5] = test system: untransfected Schneider cells; test: Response of untransfected Schneider cells to tyramine; type: binding, Drosophila; conditions: concentration as high as about 100 μM
[6] = test system: Drosophila melanogaster tyramine receptor (TyrR), SEQ ID NO: 2; test: Receptor-specific binding of 3H-tyramine in Schneider cells transfected with TyrR; conditions: whole cells, FIG. 1
From the text: Tyramine receptor is amplified from Drosophila melanogaster head cDNA phage library GH that is obtained through the Berkeley Drosophila Genome Project (Baumann, A., 1999, Drosophila melanogaster mRNA for octopamine receptor, splice variant 1B NCBI direct submission, Accession AJ007617). The nucleic acid sequence and the peptide sequence of TyrR are set forth in SEQ ID NO: 1 and SEQ ID NO: 2, respectively. Phage DNA is purified from this library using a liquid culture lysate. (Baxter, et al., 1999, Insect Biochem Mol Biol 29, 461-467). Briefly, oligonucleotides that are used to amplify the open reading frame of the Drosophila tyramine receptor (TyrR) (Han, et al., 1998, J Neurosci 18, 3650-3658; von Nickisch-Rosenegk, et al., 1996. Insect Biochem Mol Biol 26, 817-827) consist of the 5′ oligonucleotide: 5′[…] 3′ (SEQ ID NO: 7) and 3′ oligonucleotide: 5′taatctaga[…] […]
Cells transfected with the tyramine receptor (about 1×10^6 cells/ml) are cultured in each well of a multi-well plate. […] Solubilized cells are transferred into about 4 ml Liquid Scintillation Solution (LSS) and vigorously vortexed for about 30 sec before counting the radioactivity using a Liquid Scintillation β-counter (Beckman, Model LS1801) (LSC).
With reference to FIG. 1, receptor specific binding data is expressed as fmol specific binding per 1×10^6 cells and measured as a function of ^3H-tyramine concentration. […]

T1 sequence (P81917 whole entry L154V): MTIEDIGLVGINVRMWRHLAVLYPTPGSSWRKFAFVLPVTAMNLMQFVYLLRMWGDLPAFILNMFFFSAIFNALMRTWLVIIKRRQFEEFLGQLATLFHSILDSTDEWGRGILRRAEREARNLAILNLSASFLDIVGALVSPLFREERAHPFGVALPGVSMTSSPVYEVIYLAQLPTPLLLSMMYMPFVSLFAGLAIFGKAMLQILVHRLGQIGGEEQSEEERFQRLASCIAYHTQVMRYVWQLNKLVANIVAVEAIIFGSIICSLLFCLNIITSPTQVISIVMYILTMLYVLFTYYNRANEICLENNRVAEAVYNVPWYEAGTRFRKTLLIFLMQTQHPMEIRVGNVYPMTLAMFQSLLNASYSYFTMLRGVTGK

C[C@H](CCC(=O)O)C[C@H](C)C[C@H](C)C(=O)/C=C(\O)[C@H](C)C[C@H](C)C/C=C/[C@@H](C)[C@@H](O)[C@@H](C)[C@@H](O)C[C@@H]1CC[C@@](C)([C@H]2CC[C@@](C)([C@@H](C)O)O2)O1 [ionomycin]
mobilization of Ca2+ in control cells (control Schneider cells): induce mobilization of Ca^2+

C[C@H](CCC(=O)O)C[C@H](C)C[C@H](C)C(=O)/C=C(\O)[C@H](C)C[C@H](C)C/C=C/[C@@H](C)[C@@H](O)[C@@H](C)[C@@H](O)C[C@@H]1CC[C@@](C)([C@H]2CC[C@@](C)([C@@H](C)O)O2)O1 [ionomycin, reference compound]
change in intracellular Ca^2+ levels (340/380 fluorescence ratio) (Or43a receptor [1]; before vs approximately 150 seconds after treatment): only negligibly | increase in intracellular calcium (Or43a receptor [1]; ionomycin about 2 μM, tyramine about 10 μM): ~7 fold | increase in intracellular calcium (Or83b receptor [2]): Approximately 3.8 fold

C=C[C@@]1(C)CC(=O)[C@]2(O)[C@@]3(C)[C@@H](O)CCC(C)(C)[C@@H]3[C@H](O)[C@H](OC(C)=O)[C@@]2(C)O1 [forskolin]
increase in the production of cAMP (Or83b receptor [3]; forskolin about 10 μM (Example 11)): ~3000 fold | increase from basal cAMP levels (Or83b receptor [3]; forskolin about 10 μM, about 10 min, room temperature): ~13 fold | increase in cAMP levels over basal level (tyramine receptor (TyrR)): ~19 fold | change in cAMP levels (Or43a receptor [4]): increase in cAMP levels

NCCc1ccc(O)cc1 [Tyramine, tyramine]
response of untransfected cells [5]: do not respond | 3H-tyramine concentration at which maximum specific binding occurs [6]: about 5 nM | mobilization of Ca2+ in control cells (control Schneider cells): induce mobilization of Ca^2+
